According to ChEMBL document CHEMBL1123576:

What was measured:
[1] = target: T1, Opioid receptors; mu/kappa/delta (Homo sapiens) (UniProt P41145+P41143+P35372); assay: The IC50 value of agonist (DADLE) in presence of antagonist (Compound 20 nM) divided by the control […] value with no antagonist in MVD (mouse vas deferens); assay type: functional; settings: Cavia porcellus
[2] = target: T1, Opioid receptors; mu/kappa/delta (Homo sapiens); assay: The IC50 value of agonist (ethylketazocine) in presence of antagonist (Compound 20 nM) divided by the control […] value with no antagonist in GPI (Guinea pig ileum); assay type: functional, tissue-based; settings: Cavia porcellus, target entry is the homologue from another species
[3] = target: T1, Opioid receptors; mu/kappa/delta (Homo sapiens); assay: The IC50 value of agonist (morphine) in presence of antagonist (Compound 20 nM) divided by the control […] value with no antagonist in GPI (Guinea pig ileum); assay type: functional, tissue-based; settings: Cavia porcellus, target entry is the homologue from another species

T1 sequence (P35372 whole entry, looked up): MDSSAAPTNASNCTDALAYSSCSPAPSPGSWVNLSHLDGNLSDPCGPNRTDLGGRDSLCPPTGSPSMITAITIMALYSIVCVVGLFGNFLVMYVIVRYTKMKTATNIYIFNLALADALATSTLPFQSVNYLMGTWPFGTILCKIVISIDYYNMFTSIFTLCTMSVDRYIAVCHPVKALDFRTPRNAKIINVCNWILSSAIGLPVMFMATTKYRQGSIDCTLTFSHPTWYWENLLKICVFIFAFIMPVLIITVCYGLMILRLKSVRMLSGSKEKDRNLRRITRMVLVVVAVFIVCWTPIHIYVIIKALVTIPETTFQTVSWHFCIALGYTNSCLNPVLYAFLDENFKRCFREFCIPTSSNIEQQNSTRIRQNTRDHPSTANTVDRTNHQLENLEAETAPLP
T1 sequence (P41143 whole entry, looked up): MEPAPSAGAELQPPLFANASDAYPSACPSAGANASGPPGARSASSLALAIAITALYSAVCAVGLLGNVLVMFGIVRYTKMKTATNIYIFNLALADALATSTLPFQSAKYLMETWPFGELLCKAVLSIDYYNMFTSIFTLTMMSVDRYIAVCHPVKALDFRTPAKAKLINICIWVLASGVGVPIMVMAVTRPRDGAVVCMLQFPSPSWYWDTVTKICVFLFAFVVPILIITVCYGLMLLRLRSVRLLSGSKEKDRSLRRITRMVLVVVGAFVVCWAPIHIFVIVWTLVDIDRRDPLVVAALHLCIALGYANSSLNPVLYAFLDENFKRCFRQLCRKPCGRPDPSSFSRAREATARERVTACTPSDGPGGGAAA
T1 sequence (P41145 whole entry, looked up): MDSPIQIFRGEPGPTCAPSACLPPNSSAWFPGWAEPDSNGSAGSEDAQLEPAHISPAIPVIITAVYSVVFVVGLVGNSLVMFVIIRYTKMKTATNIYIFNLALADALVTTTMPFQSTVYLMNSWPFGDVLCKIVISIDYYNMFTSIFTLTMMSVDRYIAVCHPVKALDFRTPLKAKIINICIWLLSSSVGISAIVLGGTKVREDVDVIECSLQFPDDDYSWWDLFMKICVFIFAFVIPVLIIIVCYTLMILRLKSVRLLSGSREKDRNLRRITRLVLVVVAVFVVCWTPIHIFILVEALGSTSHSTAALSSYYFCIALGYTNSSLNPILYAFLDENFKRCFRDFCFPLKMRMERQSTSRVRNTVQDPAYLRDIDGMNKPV

Row | Compound | Ratio [1] | Ratio [2] | Ratio [3]
1 | Oc1ccc2c3c1O[C@@H]1c4[nH]c5c(c4CC4(O)[C@@H](C2)N(CC2CC2)CC[C@]314)CC1(O)[C@H]2Cc3ccc(O)c4c3[C@]1(CCN2CC1CC1)[C@H]5O4 (stereo partly specified) | 2 | 50.4 | 1.6
2 | Cn1c2c(c3c1[C@@H]1Oc4c(O)ccc5c4[C@@]14CCN(CC1CC1)[C@H](C5)C4(O)C3)CC1(O)[C@H]3Cc4ccc(O)c5c4[C@@]1(CCN3CC1CC1)[C@H]2O5 (stereo partly specified) | 4.5 | 128 | 5.4
